Laboratory results: patent US5610319A, “Compound useful as antiproliferative agents and GARFT inhibitors” (Agouron Pharmaceuticals, Inc., priority 1995, dated 1997)

Experiments:
GARFT = conditions: cited from earlier work
L1210 = test: In vitro growth inhibition, L1210, MTT, Example 2; format: cell-based; conditions: Mus musculus, Continuous (72-hour) exposure, mean IC50, read-out: IC50 Cell Culture L1210
Protocol: All cultures were maintained at 37° C., 5% air-CO2 in a humidified incubator.
Stock solutions of the inhibitors were prepared in 10 mM sodium bicarbonate in water and stored in 1 ml aliquots at -20° C. for cell culture experiments. Cell growth inhibition was measured by a modification of the method of Mosmann, J. Immunol. Methods 65 (1983), 55-63.
Mid-log phase cells of each cell line were diluted to 18,500 cells/ml in fresh RPMI growth medium (Mediatech, Washington, DC) supplemented with dialyzed fetal calf serum (Hyclone Laboratories Inc., Logan, Utah) and then aliquotted into columns 2 through 12 of 96-well microtiter plates. Column 1 was filled with the same volume ([…]) of fresh medium, without cells, for use as a blank. The plates were then placed in a 37° C., 5% air-CO2 incubator. After 1 to 4 hours, plates were removed from the incubator followed by addition of Compound (21) at 10×final concentration, […] in binary dilutions, to columns 12 to 4. […] The extent of metabolized MTT was measured spectrophotometrically at 540 nm on a Molecular Devices Vmax™ kinetic microplate reader. The concentration of drug required to reduce cell growth by 50% as measured by MTT metabolism was determined by interpolation between the O.D. (minus blank) immediately above and below 50% of control O.D. (minus blank). […]

6C3HED lymphosarcoma = test: In vivo antitumor activity, 6C3HED lymphosarcoma; set-up: species or system C3H/He female mice; conditions: intraperitoneal, once daily for nine days; for % Inhibition: tumor mass day 11
Protocol: (§1) On day zero, 2 mm^2 trocar fragments of 6C3HED lymphosarcoma were implanted subcutaneously in the axillary region into groups of six C3H/He female mice. Starting on day 1, the test compound was administered intraperitoneally in 40% Encapsin given once daily for nine days. Control animals received identical treatment without test compound. The percentage inhibition given in Table 5 below was calculated by comparing the mass of the control tumors (receiving diluent only) on day 11 to those of animals receiving test compound.

[1] = test system: C3H/BA mammary adenocarcinoma; test: In vivo antitumor activity, C3H/BA mammary adenocarcinoma; set-up: species or system C3H/He female mice; conditions: intraperitoneal, once daily for nine days, tumor mass day 14
Protocol: as §1, with “C3H/BA mammary adenocarcinoma” for “6C3HED lymphosarcoma”, “percentage of” for “percentage”, “inhibition” for “inhibition given in Table 5 below”, “14” for “11”

Row | Compound | GARFT inhibition (GARFT) | IC50 (L1210) | % Inhibition (6C3HED lymphosarcoma; 12.5 mg/kg) | % Inhibition (6C3HED lymphosarcoma; 25 mg/kg) | % Inhibition (given as toxic) (6C3HED lymphosarcoma; 50 mg/kg, day 11) | % Inhibition ([1]; 5 mg/kg) | % Inhibition ([1]; 10 mg/kg) | % Inhibition ([1]; 20 mg/kg)
1 | Nc1nc2c(c(=O)[nH]1)CC(CCc1ccc(C(=O)N[C@@H](CCC(=O)O)C(=O)O)cc1)CN2 (some centres unmarked) [5,10-dideazatetrahydrofolic acid] | specific tight binding inhibitor of GARFT |  |  |  |  |  |  | 
2 | Nc1nc2c(c(=O)[nH]1)SC(CCc1ccc(C(=O)N[C@@H](CCC(=O)O)C(=O)O)s1)CN2 (stereo partly drawn) [Compound 21, 4-[2-(2-Amino-4-oxo-4,6,7,8-tetrahydro-3H-pyrimido[5,4-6][1,4]thiazin-6-yl)-ethyl]-2,5-thienoylamino-L-glutamic acid] |  | 16 nM | 100% | 100% | toxic | 16% | 84% | 100%
